Reference: patent US20060229433A1, “Modified antiviral peptides with increased activity and cell membrane affinity” (priority 2003, published 2006)
“And” between values parts separate entries of the source, which are not always exact repeats. Identical values can stand only once. Square brackets hold non-standard residues; d marks the D form. Peptide text beside a SMILES is read from it. Ava = NCCCCC(=O)O

Experiments:
Assay type in all cases: cell-based
HIV-1 NL 4-3 [1] = experiment: HIV-1 infection of C8166 cells (syncytia formation, p24 ELISA) with HIV-1 NL 4-3; design: key to syncitia formed, Day 4 / syncitia formed, Day 5 / syncitia formed, Day 6 / syncitia formed, Day 7: ++, +, (+), (+)− and − represent decreasing numbers of syncitia formed; ++, +, (+), (+)− and − represent decreasing numbers of syncitia formed; ++, +, (+), (+)− and − represent decreasing numbers of syncitia formed; ++, +, (+), (+)− and − represent decreasing numbers of syncitia formed; ++, +, (+), (+)− and − represent decreasing numbers of syncitia formed
Method in brief: (§1)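 Infection was read out as syncytia and as cell-free p24 in supernatants (ELISA) from C8166 cells that received HIV-1 (1000 TCID50/ml, 1 h, 37 °C) after a 1 h peptide pretreatment. Peptide stayed on before, during and after adsorption. Toxicity was checked by daily trypan-blue counts.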

HIV-1 NDK = experiment: HIV-1 infection of C8166 cells (syncytia formation, p24 ELISA) with HIV-1 NDK; design: key to syncitia formed, Day 4 / syncitia formed, Day 5 / syncitia formed, Day 6 / syncitia formed, Day 7: ++, +, (+), (+)− and − represent decreasing numbers of syncitia formed; ++, +, (+), (+)− and − represent decreasing numbers of syncitia formed; ++, +, (+), (+)− and − represent decreasing numbers of syncitia formed; ++, +, (+), (+)− and − represent decreasing numbers of syncitia formed; ++, +, (+), (+)− and − represent decreasing numbers of syncitia formed; settings: for P 24: P 24 after Day 7
Method: HIV-1 NL 4-3 isolate (Adachi et al., 1986; Barré-Sinoussi et al., 1983) and highly cytopathic Zairian HIV-1 NDK isolate (Ellrodt et al., 1984) was propagated in permissive CEM cells (Nara et al., 1987). Uninfected CEM and C8166 (Salahuddin et al., 1983) were maintained in RPMI 1640 (R10) with ultraglutamine (cambrex, Vervier, Belgium), penicillin (100 U/ml), streptomycin (100 μg/ml), and 10% heat-inactivated fetal calf serum (Cambrex).
Samples of 3×10^5/100 μL C8166 cells were preincubated in 96-well microtiter plates in culture medium containing various concentrations of peptide. After a 1 h treatment at 37° C., 100 μl of diluted viral solution of HIV-1 was added. The cells were exposed to the virus for 1 h at 37° C. at a multiplicity of infection of 1000 TCID50 per ml. The cells were washed three times and cultured at 3×10^5/ml of R10 with the treatment in 24-well plates incubated at 37° C. C8166 culture medium was replaced at Day-4 post-infection. The treatment was permanent before virus adsorption, during virus adsorption and after infection. Assays on C8166 cells have been performed at least twice and in duplicate. Toxicity was evaluated by daily cell count and trypan-blue exclusion assay. Infection of C8166 T-cells with HIV-1 was assessed by virus-induced cytopathic effects (syncytia formation) and by quantification of cell free p24 viral protein in the culture supernatants. Measurements of HIV-1 p24^gag concentration in the culture supernatants were achieved by ELISA (ALLIANCE® HIV-1 p24 kit, Perkin Elmer, life sciences, USA).

HIV-1 NL 4-3 [2] = experiment: HIV-1 infection of C8166 cells (syncytia formation, p24 ELISA) with HIV-1 NL 4-3; design: key: ++, +, (+), (+)− and − represent decreasing numbers of syncitia formed; ++, +, (+), (+)− and − represent decreasing numbers of syncitia formed; ++, +, (+), (+)− and − represent decreasing numbers of syncitia formed; ++, +, (+), (+)− and − represent decreasing numbers of syncitia formed; ++, +, (+), (+)− and − represent decreasing numbers of syncitia formed; settings: Table 6
Method in brief: as §1

N=C(N)NCCC[C@H](NC(=O)CNC(=O)[C@@H]1CCCN1C(=O)CN)C(=O)NCCCCC(=O)O [GPGR valeric acid, GPGR-NHCH2CH2CH2CH2COOH] (H-GPGR[Ava]-OH; N-terminus assumed)
17890 pg/mL and 23810 pg/mL: P 24 (HIV-1 NDK; 0.1 μM)
++/T and ++: syncitia formed, Day 7 (HIV-1 NL 4-3 [1]; 0.01 μM, Day 7, C8166 cells)
433 pg/mL and 507 pg/mL: P 24 (HIV-1 NL 4-3 [1]; Day 7, 0.1 μM, Table 6)
3810 pg/mL: P 24 (HIV-1 NDK; 5 μM)
(+): syncitia formed, Day 5 (HIV-1 NL 4-3 [1]; 0.05 μM, C8166 cells) | syncitia formed, Day 5 (HIV-1 NL 4-3 [1]; 0.1 μM, C8166 cells) | syncitia formed, Day 4 (HIV-1 NDK; 0.005 μM) | syncitia formed, Day 4 (HIV-1 NDK; 0.01 μM) | syncitia formed, Day 5 (HIV-1 NDK; 0.05 μM) | syncitia formed, Day 5 (HIV-1 NDK; 0.1 μM) | syncitia formed, Day 6 (HIV-1 NDK; 5 μM) | Day 5 syncitia formed (HIV-1 NL 4-3 [2]; 0.05 μM) | Day 5 syncitia formed (HIV-1 NL 4-3 [2]; 0.1 μM)
104 pg/mL and 179 pg/mL: P 24 (HIV-1 NL 4-3 [1]; Day 7, 1 μM, Table 6)
++: syncitia formed, Day 6 (HIV-1 NL 4-3 [1]; 0.01 μM, C8166 cells) | syncitia formed, Day 7 (HIV-1 NL 4-3 [1]; 0.05 μM, Day 7, C8166 cells) | syncitia formed, Day 6 (HIV-1 NDK; 0.005 μM) | syncitia formed, Day 7 (HIV-1 NDK; 0.005 μM) | syncitia formed, Day 6 (HIV-1 NDK; 0.01 μM) | syncitia formed, Day 7 (HIV-1 NDK; 0.01 μM) | syncitia formed, Day 6 (HIV-1 NDK; 0.05 μM) | syncitia formed, Day 7 (HIV-1 NDK; 0.05 μM) | syncitia formed, Day 6 (HIV-1 NDK; 0.1 μM) | syncitia formed, Day 7 (HIV-1 NDK; 0.1 μM) | syncitia formed, Day 7 (HIV-1 NDK; 0.5 μM) | syncitia formed, Day 7 (HIV-1 NDK; 1 μM) | Day 6 syncitia formed (HIV-1 NL 4-3 [2]; 0.005 μM) | Day 7 syncitia formed (HIV-1 NL 4-3 [2]; 0.005 μM) | Day 6 syncitia formed (HIV-1 NL 4-3 [2]; 0.01 μM) | Day 7 syncitia formed (HIV-1 NL 4-3 [2]; 0.01 μM) | Day 7 syncitia formed (HIV-1 NL 4-3 [2]; 0.05 μM)
2740 pg/mL and 2840 pg/mL: P 24 (HIV-1 NL 4-3 [1]; 0.5 μM, P 24 after Day 7, C8166 cells)
−: syncitia formed, Day 4 (HIV-1 NL 4-3 [1]; 0.01 μM, C8166 cells) | syncitia formed, Day 4 (HIV-1 NL 4-3 [1]; 0.05 μM, C8166 cells) | syncitia formed, Day 4 (HIV-1 NL 4-3 [1]; 0.1 μM, C8166 cells) | syncitia formed, Day 4 (HIV-1 NL 4-3 [1]; 0.5 μM, C8166 cells) | syncitia formed, Day 5 (HIV-1 NL 4-3 [1]; 0.5 μM, C8166 cells) | syncitia formed, Day 6 (HIV-1 NL 4-3 [1]; 0.5 μM, C8166 cells) | syncitia formed, Day 4 (HIV-1 NL 4-3 [1]; 1 μM, C8166 cells) | syncitia formed, Day 5 (HIV-1 NL 4-3 [1]; 1 μM, C8166 cells) | syncitia formed, Day 6 (HIV-1 NL 4-3 [1]; 1 μM, C8166 cells) | syncitia formed, Day 7 (HIV-1 NL 4-3 [1]; 1 μM, Day 7, C8166 cells) | syncitia formed, Day 4 (HIV-1 NL 4-3 [1]; 5 μM, C8166 cells) | syncitia formed, Day 5 (HIV-1 NL 4-3 [1]; 5 μM, C8166 cells) | syncitia formed, Day 6 (HIV-1 NL 4-3 [1]; 5 μM, C8166 cells) | syncitia formed, Day 7 (HIV-1 NL 4-3 [1]; 5 μM, Day 7, C8166 cells) | syncitia formed, Day 4 (HIV-1 NDK; 0.05 μM) | syncitia formed, Day 4 (HIV-1 NDK; 0.1 μM) | syncitia formed, Day 4 (HIV-1 NDK; 0.5 μM) | syncitia formed, Day 5 (HIV-1 NDK; 0.5 μM) | syncitia formed, Day 4 (HIV-1 NDK; 1 μM) | syncitia formed, Day 5 (HIV-1 NDK; 1 μM) | syncitia formed, Day 4 (HIV-1 NDK; 5 μM) | syncitia formed, Day 5 (HIV-1 NDK; 5 μM) | Day 4 syncitia formed (HIV-1 NL 4-3 [2]; 0.005 μM) | Day 4 syncitia formed (HIV-1 NL 4-3 [2]; 0.01 μM) | Day 4 syncitia formed (HIV-1 NL 4-3 [2]; 0.05 μM) | Day 4 syncitia formed (HIV-1 NL 4-3 [2]; 0.1 μM) | Day 4 syncitia formed (HIV-1 NL 4-3 [2]; 0.5 μM) | Day 5 syncitia formed (HIV-1 NL 4-3 [2]; 0.5 μM) | Day 6 syncitia formed (HIV-1 NL 4-3 [2]; 0.5 μM) | Day 4 syncitia formed (HIV-1 NL 4-3 [2]; 1 μM) | Day 5 syncitia formed (HIV-1 NL 4-3 [2]; 1 μM) | Day 6 syncitia formed (HIV-1 NL 4-3 [2]; 1 μM) | Day 4 syncitia formed (HIV-1 NL 4-3 [2]; 5 μM) | Day 5 syncitia formed (HIV-1 NL 4-3 [2]; 5 μM) | Day 6 syncitia formed (HIV-1 NL 4-3 [2]; 5 μM) | Day 7 syncitia formed (HIV-1 NL 4-3 [2]; 5 μM)
9840 pg/mL and 11830 pg/mL: P 24 (HIV-1 NL 4-3 [1]; Day 7, 0.05 μM, Table 6)
300 nM: IC50 (HIV-1 NDK; HIV 1 NDK, Table 10)
23810 pg/mL: P 24 (HIV-1 NL 4-3 [1]; Day 7, 0.005 μM, Table 6) | P 24 (HIV-1 NDK; 0.005 μM) | P 24 (HIV-1 NDK; 0.01 μM) | P 24 (HIV-1 NDK; 0.05 μM)
2 pg/mL: P 24 (HIV-1 NL 4-3 [1]; 5 μM, P 24 after Day 7, C8166 cells)
9860 pg/mL and 17800 pg/mL: P 24 (HIV-1 NL 4-3 [1]; 0.05 μM, P 24 after Day 7, C8166 cells)
>5 µM: IC100 (HIV-1 NDK; HIV 1 NDK, Table 10)
53 pg/mL and 64 pg/mL: P 24 (HIV-1 NL 4-3 [1]; 1 μM, P 24 after Day 7, C8166 cells)
21800 pg/mL and 23810 pg/mL: P 24 (HIV-1 NL 4-3 [1]; Day 7, 0.01 μM, Table 6)
+: syncitia formed, Day 5 (HIV-1 NL 4-3 [1]; 0.01 μM, C8166 cells) | syncitia formed, Day 6 (HIV-1 NL 4-3 [1]; 0.05 μM, C8166 cells) | syncitia formed, Day 6 (HIV-1 NL 4-3 [1]; 0.1 μM, C8166 cells) | syncitia formed, Day 7 (HIV-1 NL 4-3 [1]; 0.1 μM, Day 7, C8166 cells) | syncitia formed, Day 7 (HIV-1 NL 4-3 [1]; 0.5 μM, Day 7, C8166 cells) | syncitia formed, Day 5 (HIV-1 NDK; 0.005 μM) | syncitia formed, Day 5 (HIV-1 NDK; 0.01 μM) | syncitia formed, Day 6 (HIV-1 NDK; 0.5 μM) | syncitia formed, Day 6 (HIV-1 NDK; 1 μM) | syncitia formed, Day 7 (HIV-1 NDK; 5 μM) | Day 5 syncitia formed (HIV-1 NL 4-3 [2]; 0.005 μM) | Day 5 syncitia formed (HIV-1 NL 4-3 [2]; 0.01 μM) | Day 6 syncitia formed (HIV-1 NL 4-3 [2]; 0.05 μM) | Day 6 syncitia formed (HIV-1 NL 4-3 [2]; 0.1 μM) | Day 7 syncitia formed (HIV-1 NL 4-3 [2]; 0.1 μM) | Day 7 syncitia formed (HIV-1 NL 4-3 [2]; 0.5 μM) | Day 7 syncitia formed (HIV-1 NL 4-3 [2]; 1 μM)
2840 pg/mL and 3810 pg/mL: P 24 (HIV-1 NDK; 1 μM)
2.36 pg/mL and 2.4 pg/mL: P 24 (HIV-1 NL 4-3 [1]; Day 7, 5 μM, Table 6)
